Experimental data reported in PMC6302903, “Protein and Chemical Determinants of BL-1249 Action and Selectivity for K2P Channels” (ACS Chemical Neuroscience, 2018).

Target: T1, K2P2.1(TREK-1) F172M (Mus musculus, UniProt P97438, F187M)
T1 construct: expressed in transfected cells; host or cells: Xenopus laevis oocytes, mRNA injected
Test: TEVC of K2P2.1(TREK-1) mutant F172M
Assay type: cell-based
Details: Xenopus oocytes
Description: To identify K2P2.1(TREK-1) M2 residues that might participate in the BL-1249 response, we mapped the residues that differ between K2P2.1(TREK-1) and K2P4.1(TRAAK) in the context of the K2P2.1(TREK-1) structure[6] (Figure 5B,C). Two K2P2.1(TREK-1) M2 residues stood out as candidates that could explain the reduction in BL-1249 response when the entire M2 helix was replaced with M2 from K2P4.1(TRAAK). One is at the M2/M4 interface and occurs between Phe172 and Arg297 via a π–cation interaction that would be lost when Phe172 is replaced with the equivalent K2P4.1(TRAAK) residue Met134 (Figure 5C, right inset). […] To assess the importance of these interactions in the context of BL-1249 response, we made the K2P2.1(TREK-1) mutants F172M and F185L and measured their responses to BL-1249 (Figure 5D). […]
Xenopus laevis oocytes were harvested in accordance with UCSF IACUC protocol AN129690 and digested in calcium-free ND-96 (96 mM NaCl, 2 mM KCl, 3.8 mM MgCl2) immediately following harvest, as previously described.[6],[10] […] Defolliculated stage V–VI oocytes were injected with 0.2–6.0 ng of mRNA in 50 nL, and currents were recorded 24–48 h after injection. mRNA was synthesized from plasmid DNA using mMessage mMachine Kit (T7 promoter, Ambion, Life Technologies) and purified using RNEasy Kit (Qiagen). […]

T1 sequence (P97438 1-411 isoform P97438-2 F172M): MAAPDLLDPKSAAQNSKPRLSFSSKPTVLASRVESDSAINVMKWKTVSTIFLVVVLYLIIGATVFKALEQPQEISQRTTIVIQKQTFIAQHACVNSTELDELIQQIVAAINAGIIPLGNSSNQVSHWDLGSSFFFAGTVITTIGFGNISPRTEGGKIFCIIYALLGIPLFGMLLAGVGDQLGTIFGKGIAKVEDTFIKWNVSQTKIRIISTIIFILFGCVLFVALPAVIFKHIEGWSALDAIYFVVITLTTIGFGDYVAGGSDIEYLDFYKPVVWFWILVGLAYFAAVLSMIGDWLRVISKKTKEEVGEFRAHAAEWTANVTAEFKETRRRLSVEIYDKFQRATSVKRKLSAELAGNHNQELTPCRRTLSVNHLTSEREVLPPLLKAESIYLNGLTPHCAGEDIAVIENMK

c1ccc(-c2nnn[nH]2)c(Nc2cccc3c2CCCC3)c1 [BL-1249, (5,6,7,8-tetrahydro-naphthalen-1-yl)-[2-(1H-tetrazol-5-yl)-phenyl]-amine]
EC50: 15 ± 2 µM
